{"source": "patent US20040228930A1", "about": "“Treatment for hemorrhagic shock” (priority 2002, published 2004)", "assay_type_in_all_cases": "in vivo", "key": {"[1]": {"test_system": "hemorrhage-induced liver hypoxia", "assay": "EF5 hypoxic imaging of liver in hemorrhaged mice", "method": "(§1) Hemorrhagic shock was induced in mice as follows: C57/BL6 or il-10^−/− mice (Jackson Laboratories) (n=3/group) weighing 20-26 grams were anesthetized with pentobarbital (70 mg/kg; IP). The right and left femoral arteries were cannulated. The left arterial catheter was connected to a monitor to follow MAP and heart rate. Over 10 minutes, blood was withdrawn via the right catheter while monitoring blood pressure to achieve an MAP of 25 mmHg. Blood was withdrawn and returned to the animal as necessary in order to maintain a MAP of 25 mmHg. Sham animals were cannulated but not subjected to hemorrhage. At the end of the shock period (90-150 minutes), mice were resuscitated with the shed blood plus two times that volume with Ringer's lactate solution over 15-30 minutes. Animals were sacrificed 4-24 hours following the initiation of resuscitation and blood, liver, lungs, and intestines were collected.\nThe technique of observing uptake of EF5 (2-[2-nitro-1H-imidazol-1-yl]-N-(2,2,3,3,3-pentafluoropropyl) acetamide) to monitor tissue hypoxia is well established and reliable. […] Intensity of staining was determined by measuring mean fluorescence in 10 different sections per animal (n=5 per group; MetaMorph®). […] These forms of the compound bind irreversibly to proteins within the cell, which can then be detected by immunohistochemistry. […]"}, "[2]": {"test_system": "il-10−/− mice subjected to HS/R", "assay": "Lung MPO activity in il-10−/− mice subjected to HS/R"}, "mice subjected to HS/R [3]": {"test_system": "mice subjected to HS/R", "assay": "Serum ALT (liver injury) in mice subjected to HS/R", "method": "as §1\n(§2) A colorimetric analysis for serum alanine aminotransferase (ALT) level was used to determine whether liver injury occurred in mice subjected to HS/R. The alanine aminotransferase test is one of a group of tests known as liver function tests and is used to monitor damage to the liver. Alanine aminotransferase is an enzyme that is normally expressed in the liver and under normal circumstances is present in serum samples at very low levels. Increased levels of ALT in the serum are indicative of liver cell death and/or liver failure.\nMice were exposed to CO at a concentration of 250 ppm. Briefly, 1% CO in air was mixed with air (21% oxygen) in a stainless steel mixing cylinder and then directed into a 3.70 ft^3 glass exposure chamber at a flow rate of 12 L/min. A CO analyzer (Interscan, Chatsworth, Calif.) was used to measure CO levels continuously in the chamber. CO concentrations were maintained at 250 ppm at all times. Mice were placed in the exposure chamber as required. […]"}, "mice subjected to HS/R [4]": {"test_system": "mice subjected to HS/R", "assay": "Lung myeloperoxidase (MPO) activity in mice subjected to HS/R"}, "mice subjected to HS/R [5]": {"test_system": "mice subjected to HS/R", "assay": "Intestinal histology (H&E) in mice subjected to HS/R", "conditions": "CO 250 ppm throughout HS/R, 4 hours after resuscitation", "method": "as §1\nHarvested intestines were flushed and fixed in 2% paraformaldehyde for 2 hours and then 30% sucrose for 12 hours. Specimens were frozen slowly in cold 2-methylbutane. Sections were stained using hematoxylin and eosin (H&E) and architectural changes were evaluated.\nMice were exposed to CO at a concentration of 250 ppm. Briefly, 1% CO in air was mixed with air (21% oxygen) in a stainless steel mixing cylinder and then directed into a 3.70 ft^3 glass exposure chamber at a flow rate of 12 L/min. […]"}, "IL-10": {"test_system": "IL-10", "assay": "Serum IL-10 by ELISA in mice subjected to HS/R", "conditions": "CO 250 ppm throughout HS/R, 4 hours after resuscitation, P<0.05 vs sham and shock controls", "method": "as §1\n(§3) Serum levels of the cytokines interleukin-6 (IL-6), tumor necrosis factor alpha (TNF-α), and interleukin-10 (IL-10) were determined by enzyme-linked immunosorbent assay (ELISA) (R&D systems) according to the manufacturer's instructions. These cytokines were measured because they mediate inflammation. Levels of pro-inflammatory cytokines can increase following hemorrhagic shock and can exacerbate hemodynamics and contribute to the development of multiple organ dysfunction. […]"}, "[6]": {"test_system": "il-10−/− mice subjected to HS/R", "assay": "Serum ALT in il-10−/− mice subjected to HS/R", "method": "as §1\nas §2, with “Increased levels of ALT in the serum are indicative of liver cell death and/or liver failure.” left out"}, "IL-6": {"test_system": "IL-6", "assay": "Serum IL-6 by ELISA in mice subjected to HS/R", "conditions": "CO 250 ppm throughout HS/R, 4 hours after resuscitation, P<0.05 vs untreated HS/R mice", "method": "as §1, §3"}, "[7]": {"conditions": "CO 250 ppm throughout HS/R, 4 hours after resuscitation, P<0.05"}}, "data": [{"smiles": "[C-]#[O+]", "note": "[CO, carbon monoxide]", "values": [{"measurement": "liver hypoxia (EF5) compared to air-treated sham controls", "setting": "[1]; CO-treated sham controls, 250 ppm", "value": "no increase"}, {"measurement": "increase in liver EF5 staining compared to air-treated sham controls", "setting": "[1]; shocked mice, CO 250 ppm initiated at onset of shock, 90 minutes after initiation of shock, P<0.05 vs air-treated shocked mice", "value": "3.7±0.7", "unit": "fold"}, {"measurement": "protection against HS/R-induced lung injury (lung MPO activity)", "setting": "[2]", "value": "did not appear to protect"}, {"measurement": "serum ALT compared to untreated mice", "setting": "mice subjected to HS/R [3]; [7]", "value": "significantly lowered"}, {"measurement": "serum ALT compared to untreated shocked mice", "setting": "mice subjected to HS/R [3]; CO during resuscitation only, 24 hours after resuscitation", "value": "significantly lower"}, {"measurement": "protection against liver injury", "setting": "mice subjected to HS/R [3]; CO initiated during resuscitation only, 4-hour time point following resuscitation (data not shown)", "value": "no demonstrable protection"}, {"measurement": "lung MPO activity compared to untreated mice", "setting": "mice subjected to HS/R [4]; [7]", "value": "significantly lowered"}, {"measurement": "lung MPO activity", "setting": "mice subjected to HS/R [4]; CO initiated during resuscitation only, after 4 hours", "value": "significantly improved"}, {"measurement": "intestinal histology of CO-treated shocked mice", "setting": "mice subjected to HS/R [5]", "value": "more closely resembled CO- and air-treated sham controls"}, {"measurement": "increase in serum IL-10 levels in shocked mice", "setting": "IL-10", "value": 5.4, "unit": "fold"}, {"measurement": "protection against HS/R-induced liver injury (serum ALT)", "setting": "[6]", "value": "did not appear to protect"}, {"measurement": "HS/R-induced increase in serum IL-6", "setting": "IL-6", "value": "significantly abrogated"}]}]}
